Results on 9 compounds are retold here after ChEMBL document CHEMBL1131503, “Design and synthesis of enantiomers of 3,5-dinitro-o-tyrosine: alpha-amino-3-hydroxy-5-methyl-4-isoxazolepropanoic acid (AMPA) receptor antagonists” (J Med Chem, 1998).

This test addresses Glutamate receptor ionotropic, AMPA (Rattus norvegicus) (UniProt P19491+P19492+P19493+P19490). Nature of the test: The compound was tested for the % displacement of [3H]AMPA binding to Ionotropic glutamate receptor AMPA in rat brain membranes at a concentration of 100 uM. It counts as cell membranes. A general note: In a radioligand displacement assay an active substance lowers the binding of a labelled ligand.
As to `NC(Cc1ccccc1OCC(=O)O)C(=O)O` (centres undefined), the Displacement is 20%.
In the case of `N[C@@H](Cc1cc([N+](=O)[O-])cc([N+](=O)[O-])c1O)C(=O)O`, the Displacement was found to be 78%.
The figure for `CC(=O)NC(Cc1cc([N+](=O)[O-])cc([N+](=O)[O-])c1O)C(=O)O` (centres undefined) is 14%; for `NC(Cc1cc([N+](=O)[O-])cc([N+](=O)[O-])c1O)C(=O)O` (centres undefined) it is 76%.
Compound `N[C@H](Cc1cc([N+](=O)[O-])cc([N+](=O)[O-])c1O)C(=O)O` gave a Displacement of 58%.
`O=[N+]([O-])c1cc2nc(O)c(O)nc2cc1[N+](=O)[O-]` showed a Displacement of 99%.
`COc1c(CC(NC(=O)OC(C)(C)C)C(=O)O)cc([N+](=O)[O-])cc1[N+](=O)[O-]` (centres undefined) had a Displacement of 26%.
In the case of `CC(C)(C)OC(=O)NC(Cc1cc([N+](=O)[O-])cc([N+](=O)[O-])c1O)C(=O)O` (centres undefined), the Displacement is 17%.
The compound `COc1c(CC(N)C(=O)O)cc([N+](=O)[O-])cc1[N+](=O)[O-]` (centres undefined) returned a Displacement of 66%.
